Values joined by “and” are separate entries in the source; they are usually repeats but may differ in a detail not shown here. Identical values can stand only once. Residues, ends and D or L forms follow the SMILES beside them.
Legend:
[1] = cited from earlier work
plasma proteins = conditions: cited from earlier work
[2] = Plasma and urine pharmacokinetics after I.V. bolus in rats; conditions: for % excreted - endog / CLR -endog: endogenous AcSDKP subtracted; for % excreted: urine
N-terminal site of ACE = N-terminal site of ACE (Homo sapiens, UniProt P12821); conditions: AcSDKP as substrate, in vitro; cited from earlier work
N-terminal site of ACE, sequence (P12821 40-624 limits assumed): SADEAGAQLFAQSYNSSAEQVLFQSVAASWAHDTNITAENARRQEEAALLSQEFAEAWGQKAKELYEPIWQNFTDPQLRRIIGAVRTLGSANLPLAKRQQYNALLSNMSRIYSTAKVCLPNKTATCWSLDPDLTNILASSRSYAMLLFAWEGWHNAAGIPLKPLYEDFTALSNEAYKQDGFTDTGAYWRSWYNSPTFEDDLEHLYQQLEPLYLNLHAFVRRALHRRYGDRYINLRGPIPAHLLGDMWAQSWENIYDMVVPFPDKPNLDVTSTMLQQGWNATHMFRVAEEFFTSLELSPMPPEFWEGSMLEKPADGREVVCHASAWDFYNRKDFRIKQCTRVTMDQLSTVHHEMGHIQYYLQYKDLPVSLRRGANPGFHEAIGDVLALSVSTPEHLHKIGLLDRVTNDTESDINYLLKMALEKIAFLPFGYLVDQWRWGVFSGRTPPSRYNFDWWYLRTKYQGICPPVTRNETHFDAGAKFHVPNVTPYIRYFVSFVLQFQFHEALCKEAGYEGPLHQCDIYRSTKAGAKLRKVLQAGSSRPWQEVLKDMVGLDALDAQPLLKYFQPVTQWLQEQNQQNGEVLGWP

[3] = Group 1, i.v. bolus, without captopril, mean
[4] = Group 1, i.v. bolus, without captopril, single rats
[5] = Group 2, i.v. bolus, with captopril, 2-4 h, single rats
[6] = Group 2, i.v. bolus, with captopril, mean
[7] = Group 2, i.v. bolus, with captopril, single rats
[8] = summarizing table, rats, i.v. bolus, with captopril
[9] = summarizing table, rats, i.v. bolus, without captopril

## CC(=O)N[C@@H](CO)C(=O)N[C@@H](CC(=O)O)C(=O)N[C@@H](CCCCN)C(=O)N1CCC[C@H]1C(=O)O [AcSDKP, N-acetyl-Ser-Asp-Lys-Pro] (Ac-SDKP-OH; C-terminus assumed)
[1]; between two 50 mg doses of captopril
  concentration in the plasma, minimum value: 2 pmol/mL
[1]; with an ACE inhibitor
  urinary clearance relative to endogenous creatinine clearance: 69±27%
Plasma proteins
  bound to the plasma proteins: < 1%
[2]; Group 1, i.v. bolus, without captopril, 0-2 h, single rats
  Q in urine: 25.1 nmol and 0.0 nmol and 46.7 nmol and 0.1 nmol
[2]; Group 1, i.v. bolus, without captopril, 2-4 h, single rats
  Q in urine: 7.1 nmol and 0.0 nmol and 15.7 nmol and 36.4 nmol
[2]; Group 1, i.v. bolus, without captopril, 4-5 h, single rats
  Q in urine: 33.5 nmol and 51.3 nmol and 0.0 nmol and 14.6 nmol
[2]; Group 1, i.v. bolus, without captopril, 5-24 h, single rats
  Q in urine: 9.9 nmol and 10.2 nmol and 0.0 nmol and 20.6 nmol and 78.5 nmol
[2]; Group 1, i.v. bolus, without captopril, 24-36 h, single rats
  Q in urine: 4.1 nmol and 3.4 nmol and 15.5 nmol and 0.9 nmol
[2]; Group 1, i.v. bolus, without captopril, 36-48 h, single rats
  Q in urine: 4.0 nmol and 1.7 nmol and 3.4 nmol and 2.0 nmol and 7.9 nmol
[2]; Group 1, i.v. bolus, without captopril, 5 min, single rats
  Concentration in plasma: 2188 nM and 1759 nM and 1239 nM and 2100 nM and 1802 nM
[2]; Group 1, i.v. bolus, without captopril, 10 min, single rats
  Concentration in plasma: 729 nM and 400 nM and 265 nM and 671 nM and 508 nM
[2]; Group 1, i.v. bolus, without captopril, 15 min, single rats
  Concentration in plasma: 268 nM and 96 nM and 135 nM and 328 nM and 143 nM
[2]; Group 1, i.v. bolus, without captopril, 30 min, single rats
  Concentration in plasma: 34 nM and 14 nM and 10 nM (2×) and 121 nM
[2]; Group 1, i.v. bolus, without captopril, 60 min, single rats
  Concentration in plasma: 5 nM and 0.36 nM and 0.15 nM and 33 nM and 2 nM
[2]; Group 1, i.v. bolus, without captopril, 120 min, single rats
  Concentration in plasma: ILQ (4×) and 2 nM
[2]; Group 1, i.v. bolus, without captopril, 180 min, single rats
  Concentration in plasma: ILQ
[2]; Group 1, i.v. bolus, without captopril, 240 min, single rats
  Concentration in plasma: ILQ
[2]; Group 1, i.v. bolus, without captopril, 300 min, single rats
  Concentration in plasma: ILQ
[2]; [3]
  % excreted - endog: 7.86%
  CLR -endog: 11.21 mL/min/kg
  AUC0-inf: 17393 nM·min
  CLR: 14.52 mL/min/kg
  VD: 1389 mL/kg
  t½: 6.8 min
[2]; [4]
  % excreted - endog: 8.9% and 8.0% and 5.6% and 8.3% and 8.5%
  CLR -endog: 8.6 mL/min/kg and 11.1 mL/min/kg and 11.5 mL/min/kg and 11.8 mL/min/kg and 13.0 mL/min/kg
  AUC0-inf: 230401 nM·min and 16319 nM·min and 13026 nM·min and 18178 nM·min and 16223 nM·min
  CLR: 10.7 mL/min/kg and 12.5 mL/min/kg and 20.3 mL/min/kg and 12.8 mL/min/kg and 16.4 mL/min/kg
  Q in urine total: 83.7 nmol and 66.6 nmol and 81.3 nmol and 74.5 nmol and 86.5 nmol
  VD: 894 mL/kg and 1070 mL/kg and 1034 mL/kg and 2600 mL/kg and 1346 mL/kg
  t½: 6.4 min and 4.7 min and 4.4 min and 12.8 min and 5.9 min
  % excreted: 1.1% and 9.4% and 10.5% and 8.9% and 10.4%
[2]; Group 2, i.v. bolus, with captopril, 0-2 h, single rats
  Q in urine: 0.0 nmol
[2]; [5]
  Concentration in urine: 126.118 µM
  Q in urine: 0.2 nmol and 744.4 nmol and 820.9 nmol and 0.0 nmol and 535.3 nmol
[2]; Group 2, i.v. bolus, with captopril, 4-6 h, single rats
  Q in urine: 0.0 nmol
[2]; Group 2, i.v. bolus, with captopril, 6-24 h, single rats
  Q in urine: 504.6 nmol and 49.0 nmol and 219.7 nmol and 649.1 nmol and 202.3 nmol
[2]; Group 2, i.v. bolus, with captopril, 24-30 h, single rats
  Q in urine: 1.6 nmol and 9.6 nmol and 0.0 nmol (3×)
[2]; Group 2, i.v. bolus, with captopril, 30-48 h, single rats
  Q in urine: 8.0 nmol and 2.5 nmol and 10.6 nmol (2×) and 0.4 nmol
[2]; Group 2, i.v. bolus, with captopril, 5 min, single rats
  Concentration in plasma: 6707 nM and 5413 nM and 5511 nM and 5293 nM and 5393 nM
[2]; Group 2, i.v. bolus, with captopril, 10 min, single rats
  Concentration in plasma: 5920 nM and 4813 nM and 4288 nM and 5439 nM and 4445 nM
[2]; Group 2, i.v. bolus, with captopril, 15 min, single rats
  Concentration in plasma: 5571 nM and 4016 nM and 3399 nM and 3876 nM and 3343 nM
[2]; Group 2, i.v. bolus, with captopril, 30 min, mean
  Concentration in plasma: 2457 nM
[2]; Group 2, i.v. bolus, with captopril, 30 min, single rats
  Concentration in plasma: 2173 nM
[2]; Group 2, i.v. bolus, with captopril, 60 min, single rats
  Concentration in plasma: 1759 nM and 735 nM and 848 nM and 1069 nM and 590 nM
[2]; Group 2, i.v. bolus, with captopril, 120 min, single rats
  Concentration in plasma: 501 nM and 151 nM and 145 nM and 197 nM and 97 nM
[2]; Group 2, i.v. bolus, with captopril, 180 min, single rats
  Concentration in plasma: 159 nM and 32 nM and 39 nM and 48 nM and 21 nM
[2]; Group 2, i.v. bolus, with captopril, 240 min, single rats
  Concentration in plasma: 52 nM and 10 nM and 18 nM and 23 nM and 7 nM
[2]; Group 2, i.v. bolus, with captopril, 300 min, single rats
  Concentration in plasma: 26 nM and 9 nM and 6 nM and 11 nM and 4 nM
[2]; [6]
  % excreted - endog: 97%
  CLR -endog: 11.67 mL/min/kg
  AUC0-INF: 224742 nM·min
  CLR: 11.94 mL/min/kg
  Vd: 515 mL/kg
  t½: 30.7 min
[2]; [7]
  % excreted - endog: 75.3% and 85.1% and 139.3% and 90.2% and 95.1%
  CLR -endog: 5.2 mL/min/kg and 13.2 mL/min/kg and 16.4 mL/min/kg and 10.1 mL/min/kg and 13.5 mL/min/kg
  AUC0-INF: 341133 nM·min and 196456 nM·min and 200683 nM·min and 217932 nM·min and 167504 nM·min
  CLR: 5.39 mL/min/kg and 13.59 mL/min/kg and 16.71 mL/min/kg and 10.09 mL/min/kg and 13.91 mL/min/kg
  Q in urine total: 514.5 nmol and 805.5 nmol and 1051.2 nmol and 649.5 nmol and 748.3 nmol
  Vd: 653 mL/kg and 499 mL/kg and 505 mL/kg and 567 mL/kg
  t½: 35.5 min and 29.2 min and 29.5 min and 31.4 min and 28.1 min
  % excreted: 78.2% and 87.7% and 142.2% and 90.4% and 97.9%
[2]; rats, in the absence of captopril
  degradation in vivo: rapidly degraded in vivo
[2]; [8]
  Renal clearance: 11.7 mL/min/kg
  T ½ life: 30.7 min
  Total clearance: 11.9 mL/min/kg
[2]; [9]
  T ½ life: 6.8 min
  Total clearance: 144.4 mL/min/kg
N-terminal site of ACE
  catalytic effectiveness of N-terminal site of ACE relative to C-terminal site: 50 times

Reference: patent US7601333B2, “Use of a tetrapeptide AcSDKP (SEQ ID No. 1) analog resistant to the angiotensin I converting enzyme for measuring glomerular filtration rate in a human or an animal and kit containing same” (Assistance Publique-Hopitaux de Paris, priority 2003, dated 2009)
